Assay results taken from ChEMBL document CHEMBL1128392, “Receptor surface models. 2. Application to quantitative structure-activity relationships studies” (J Med Chem, 1995).

Biological target: Dopamine beta-hydroxylase (Homo sapiens, UniProt P09172)
Assay: Inhibition of dopamine beta hydroxylase

Dopamine beta-hydroxylase, sequence (P09172 whole entry): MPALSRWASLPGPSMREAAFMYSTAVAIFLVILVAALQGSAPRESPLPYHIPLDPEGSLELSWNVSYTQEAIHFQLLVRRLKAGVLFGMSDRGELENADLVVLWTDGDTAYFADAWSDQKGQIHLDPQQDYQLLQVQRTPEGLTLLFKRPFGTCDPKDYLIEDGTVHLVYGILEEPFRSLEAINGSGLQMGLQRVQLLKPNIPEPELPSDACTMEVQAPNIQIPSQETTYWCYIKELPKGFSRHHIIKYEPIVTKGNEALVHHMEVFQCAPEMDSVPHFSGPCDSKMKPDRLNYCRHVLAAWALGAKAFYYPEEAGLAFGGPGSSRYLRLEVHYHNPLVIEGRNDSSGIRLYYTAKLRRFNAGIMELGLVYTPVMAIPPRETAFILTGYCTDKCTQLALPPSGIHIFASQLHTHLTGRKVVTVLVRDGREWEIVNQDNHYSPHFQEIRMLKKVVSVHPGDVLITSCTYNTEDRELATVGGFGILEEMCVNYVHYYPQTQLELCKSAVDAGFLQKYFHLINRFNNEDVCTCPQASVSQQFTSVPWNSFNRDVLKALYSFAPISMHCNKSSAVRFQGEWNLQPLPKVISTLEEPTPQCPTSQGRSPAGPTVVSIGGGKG

IC50	SMILES
17 µM	S=c1[nH]ccn1Cc1ccc(Cl)cc1Cl
102 µM	S=c1[nH]ccn1Cc1c(Cl)cc(Cl)cc1Cl
158 µM	COc1cccc(Cn2cc[nH]c2=S)c1
1.2 µM	Fc1cc(F)cc(Cn2cc[nH]c2=S)c1
33.1 µM	S=c1[nH]ccn1Cc1ccccc1
36.3 µM	COc1c(F)cc(Cn2cc[nH]c2=S)cc1F
95.5 µM	S=c1[nH]ccn1Cc1ccc(Cl)cc1
12 µM	Oc1ccc(Cn2cc[nH]c2=S)cc1Br
12 µM	S=c1[nH]ccn1Cc1cccc(Cl)c1
115 µM	S=c1[nH]ccn1Cc1ccc(Br)cc1
83.2 µM	COc1ccc(Cn2cc[nH]c2=S)cc1Br
575 µM	Oc1ccccc1Cn1cc[nH]c1=S
355 µM	COc1ccc(Cn2cc[nH]c2=S)cc1[N+](=O)[O-]
2.19 µM	Oc1ccc(Cn2cc[nH]c2=S)cc1O
61.7 µM	Oc1c(F)c(F)c(Cn2cc[nH]c2=S)c(F)c1F
74.1 µM	COc1ccccc1Cn1cc[nH]c1=S
28.2 µM	S=c1[nH]ccn1Cc1ccc(Cl)c(Cl)c1
501 µM	COc1cccc(OC)c1Cn1cc[nH]c1=S
148 µM	Cc1ccc(Cn2cc[nH]c2=S)cc1
120 µM	Oc1ccc(Cn2cc[nH]c2=S)cc1C(F)(F)F
5.62 µM	Fc1cccc(Cn2cc[nH]c2=S)c1
204 µM	COc1ccc(Cn2cc[nH]c2=S)cc1
75.9 µM	Oc1cc(Cl)c(Cn2cc[nH]c2=S)c(Cl)c1

IC50	SMILES
52.5 µM	S=c1[nH]ccn1Cc1cccc(Cl)c1Cl
1.51 µM	Oc1ccc(Cn2cc[nH]c2=S)cc1F
155 µM	COc1cc(Cl)c(Cn2cc[nH]c2=S)c(Cl)c1
174 µM	COc1ccc(Cn2cc[nH]c2=S)cc1C(F)(F)F
49 µM	Cc1cc(Cn2cc[nH]c2=S)ccc1O
2.4 µM	S=c1[nH]ccn1Cc1cc(Cl)cc(Cl)c1
0.676 µM	Oc1c(Cl)cc(Cn2cc[nH]c2=S)cc1Cl
69.2 µM	COc1ccc(Cn2cc[nH]c2=S)cc1C
46.8 µM	COc1c(Cl)cc(Cn2cc[nH]c2=S)cc1Cl
200 µM	FC(F)(F)c1ccc(Cn2cc[nH]c2=S)cc1
97.7 µM	S=c1[nH]ccn1Cc1cc(Cl)ccc1Cl
339 µM	Cc1ccccc1Cn1cc[nH]c1=S
30.9 µM	O=[N+]([O-])c1cc(Cn2cc[nH]c2=S)ccc1O
708 µM	S=c1[nH]ccn1Cc1c(Cl)cccc1Cl
339 µM	COc1ccc(Cn2cc[nH]c2=S)cc1OC
355 µM	S=c1[nH]ccn1Cc1ccccc1Cl
46.8 µM	Fc1ccc(Cn2cc[nH]c2=S)cc1
0.0741 µM	Oc1c(F)cc(Cn2cc[nH]c2=S)cc1F
2.57 µM	Oc1ccc(Cn2cc[nH]c2=S)cc1
1000 µM	Cc1cccc(C)c1Cn1cc[nH]c1=S
52.5 µM	O=[N+]([O-])c1ccc(Cn2cc[nH]c2=S)cc1
74.1 µM	COc1ccc(Cn2cc[nH]c2=S)cc1F
148 µM	Oc1cccc(Cn2cc[nH]c2=S)c1
